In general, IC50 refers to the concentration needed to halve the response being measured. Read a high IC50 as a need for much substance. In general, inhibition refers to how much of the control response was suppressed. Low values mean little suppression, high ones strong suppression.

Active and inactive are the calls of the source. No cut-off for these calls is given here. Bounds are passed on as bounds.

The test system of series [1] is K562. Briefly: Growth inhibition of K562 cells after 72 hrs. It counts as functional, cell-based. The settings on record: Homo sapiens, K562, 72 h.
Series [2] concerns HUVEC. The experiment in a line: Selectivity index, ratio of IC50 for Neuro2A cells to IC50 for HUVEC cells. It counts as functional, Homo sapiens.
Series [3] in a line: Growth inhibition of KB3-1 cells after 72 hrs. Format: functional, cell-based. The settings on record: Homo sapiens, KB 3-1, 72 h.
In series [4] the test system is HUVEC. Briefly: Selectivity index, ratio of IC50 for KB3-1 cells to IC50 for HUVEC cells. Format: functional, Homo sapiens.
Series [5] in a line: Growth inhibition of Neuro2A cells after 72 hrs. It counts as functional, cell-based. The settings on record: N2a.
Series [6] concerns HUVEC. The experiment in a line: Growth inhibition of HUVEC cells after 72 hrs. It counts as functional, cell-based. The settings on record: Homo sapiens.
Series [7] deals with K562. Briefly: Selectivity index, ratio of IC50 for K562 cells to IC50 for HUVEC cells. It counts as functional, Homo sapiens.
The test system of series [8] is HUVEC. The experiment in a line: Induction of apoptosis assessed as activation of caspase 7 in HUVEC cells at 10 uM after 48 hrs. It counts as functional, Homo sapiens.
The target in series [9] is Mitogen-activated protein kinase 1 (Homo sapiens) (UniProt P28482). Briefly: Inhibition of VEGF-induced ERK2 phosphorylation in HUVEC cells after 6 hrs by immunoblotting. It counts as cell-based.
Series [10] has as its system HUVEC. The experiment in a line: Induction of apoptosis assessed as activation of caspase 3 in HUVEC cells at 10 uM after 60 hrs. Format: functional, Homo sapiens.
Series [11] concerns KB 3-1. Briefly: Induction of apoptosis assessed as activation of caspase 7 in KB3-1 cells at 10 uM. It counts as functional, cell-based. The settings on record: Homo sapiens.
The test system of series [12] is HUVEC. The experiment in a line: Inhibition of VEGF-induced cell migration in HUVEC at 1.0 uM after 12 hrs. Format: functional, cell-based. The settings on record: Homo sapiens.
A short description of series [13]: Growth inhibition of HUVEC at 10 uM. Format: cell-based. The settings on record: human, HUVEC cells.
In series [14] the test system is HUVEC. The experiment in a line: Inhibition of VEGF-induced cell migration in HUVEC at 0.3 uM after 12 hrs. It counts as functional, cell-based. The settings on record: Homo sapiens.
The test system of series [15] is HUVEC. Briefly: Induction of apoptosis assessed as activation of caspase 3 in HUVEC cells at 10 uM after 48 hrs. Format: functional, Homo sapiens.
Series [16] deals with HUVEC. The experiment in a line: Induction of apoptosis assessed as activation of caspase 3 in HUVEC cells at 1 uM after 60 hrs. It counts as functional, Homo sapiens.
The target of series [17] is Mitogen-activated protein kinase 3 (Homo sapiens) (UniProt P27361). The experiment in a line: Inhibition of VEGF-induced ERK1 phosphorylation in HUVEC cells after 6 hrs by immunoblotting. It counts as cell-based.
In series [18] the test system is KB 3-1. The experiment in a line: Induction of apoptosis assessed as activation of caspase 3 in KB3-1 cells at 10 uM. Format: functional, cell-based. The settings on record: Homo sapiens.
Series [19] deals with HUVEC. Briefly: Induction of apoptosis assessed as activation of caspase 7 in HUVEC cells at 10 uM after 60 hrs. Format: functional, Homo sapiens.
For series [20], the system named is HUVEC. The experiment in a line: Induction of apoptosis assessed as activation of caspase 3 in HUVEC cells at 1 uM after 48 hrs. Format: functional, Homo sapiens.
Series [21] concerns HUVEC. Briefly: Induction of apoptosis assessed as activation of caspase 7 in HUVEC cells at 1 uM after 48 hrs. Format: functional, Homo sapiens.
Series [22] concerns HUVEC. Briefly: Induction of apoptosis assessed as activation of caspase 7 in HUVEC cells at 1 uM after 60 hrs. It counts as functional, Homo sapiens.
Series [23] is described as follows: Growth inhibition of HUVEC at 1 uM. The settings on record: human, HUVEC cells. It counts as cell-based.

Sequence of Mitogen-activated protein kinase 3 (Homo sapiens) (P27361 whole entry): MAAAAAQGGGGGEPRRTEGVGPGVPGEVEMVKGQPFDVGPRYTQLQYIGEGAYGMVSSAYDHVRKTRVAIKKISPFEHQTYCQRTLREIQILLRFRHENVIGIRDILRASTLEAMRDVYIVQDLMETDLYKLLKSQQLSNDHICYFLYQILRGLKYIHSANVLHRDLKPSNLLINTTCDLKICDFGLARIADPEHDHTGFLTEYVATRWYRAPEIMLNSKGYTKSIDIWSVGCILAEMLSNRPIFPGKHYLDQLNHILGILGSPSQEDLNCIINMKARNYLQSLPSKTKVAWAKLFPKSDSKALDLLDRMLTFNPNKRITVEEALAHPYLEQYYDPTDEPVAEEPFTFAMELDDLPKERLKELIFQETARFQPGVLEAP
Sequence of Mitogen-activated protein kinase 1 (Homo sapiens) (P28482 whole entry): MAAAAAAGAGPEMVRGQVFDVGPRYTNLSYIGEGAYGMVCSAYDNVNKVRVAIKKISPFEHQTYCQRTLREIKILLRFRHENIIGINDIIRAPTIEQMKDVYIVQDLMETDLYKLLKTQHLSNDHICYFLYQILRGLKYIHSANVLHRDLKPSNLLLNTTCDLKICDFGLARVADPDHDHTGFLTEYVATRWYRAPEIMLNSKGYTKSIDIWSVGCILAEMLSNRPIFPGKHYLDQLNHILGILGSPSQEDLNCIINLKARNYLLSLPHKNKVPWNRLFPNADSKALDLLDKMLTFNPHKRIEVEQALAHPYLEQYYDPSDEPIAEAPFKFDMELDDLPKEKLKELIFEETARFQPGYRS

On to `COC(=O)[C@]1(C)[C@@H]2CC[C@]3(C)\C(=C(C)/C=C/C=C(C)/C=C/C(O)C(C)(C)O)C(=O)C[C@H]3[C@@]2(C)CC[C@H]1OC(C)=O` (stereo partly specified) [GLOBOSTELLATIC ACID F METHYL ESTER], for which the IC50 with K562 [1] turned out to be 12 µM; in [3] it was 8.6 µM; in series [5], 5 µM; in the series with HUVEC [6], 0.98 µM. In addition, the “Ratio IC50” value is 5 in the series with HUVEC [2], 9 in the series with HUVEC [4] and 12 in the series on K562 [7].
In the case of `COC(=O)[C@@]1(C)[C@H](O)CC[C@@]2(C)[C@H]1CC[C@]1(C)\C(=C(C)/C=C/C=C(C)/C=C/C=C(C)C)C(=O)C[C@@H]21`, the IC50 was 5.2 µM in the series on K562 [1], 4.9 µM in [3], 5.9 µM in series [5] and 0.19 µM in the series on HUVEC [6]. Also, the “Ratio IC50” value with HUVEC [2] was determined as 31; in the series with HUVEC [4], 25; in the series with K562 [7], 27.
With `COC(=O)[C@]1(C)[C@@H]2CC[C@]3(C)/C(=C(C)/C=C/C=C(C)/C=C/C=C(C)C)C(=O)C[C@H]3[C@@]2(C)CC[C@H]1OC(C)=O`, the IC50 in the series with K562 [1] stood at 9 µM; in series [3], 3.1 µM; in series [5], 3.2 µM; in the series with HUVEC [6], 0.064 µM. In addition, the “Ratio IC50” value came out at 50 in the series on HUVEC [2], 48 in the series on HUVEC [4] and 141 in the series with K562 [7].
On to `COC(=O)[C@]1(C)[C@@H]2CC[C@]3(C)\C(=C(C)/C=C/C=C(C)\C=C\C=C(C)C)C(=O)C[C@H]3[C@@]2(C)CC[C@H]1OC(C)=O`, for which the IC50 came out at 22 µM in the series with K562 [1], 18 µM in series [3], 4.7 µM in series [5] and 0.06 µM with HUVEC [6]. In addition, the “Ratio IC50” value in the series on HUVEC [2] came out at 75; in the series on HUVEC [4] it was 200; in the series with K562 [7], 360.
As for `COC(=O)[C@]1(C)[C@@H]2CC[C@]3(C)/C(=C(C)/C=C/C=C(C)\C=C\C=C(C)C)C(=O)C[C@H]3[C@@]2(C)CC[C@H]1OC(C)=O`, the IC50 in the series with K562 [1] stood at 22 µM; in series [3], 9.8 µM; in [5], 7.9 µM; in the series on HUVEC [6], 0.4 µM. In addition, the “Ratio IC50” value turned out to be 19 in the series on HUVEC [2], 25 with HUVEC [4] and 55 in the series with K562 [7].
Regarding `CC(=O)O[C@@H]1CC[C@@]2(C)[C@@H](CC[C@]3(C)/C(=C(C)/C=C/C=O)C(=O)C[C@@H]23)[C@@]1(C)C(=O)O` [ACETYLJASPIFERAL E], the IC50 was determined as 32 µM in the series with K562 [1], 28 µM in [3], 34 µM in series [5] and 2.2 µM with HUVEC [6]. For the same compound, the “Ratio IC50” value in the series with HUVEC [2] worked out at 14; in the series with HUVEC [4], 13; in the series with K562 [7], 15.
With `COC(=O)[C@]1(C)[C@@H]2CC[C@]3(C)\C(=C(C)/C=C/C=C(C)/C=C/C=C(C)C)C(=O)C[C@H]3[C@@]2(C)CC[C@H]1OC(C)=O`, the Fold change in the series on HUVEC [8] amounted to 17; with HUVEC [10] it was 13; with HUVEC [15], 5; in the series with HUVEC [16], 13; with HUVEC [19], 45; in the series on HUVEC [20] it was 5. Further, the Fold change in the series on HUVEC [21] is listed as 17; with HUVEC [22] it was 45. Besides, the result (in series [9]; in the series with KB 3-1 [11]; in series [17]; in the series on KB 3-1 [18]) was inactive. Further, the IC50 in the series on K562 [1] turned out to be 23 µM; in series [3], 14 µM; in series [5] it was 7.5 µM. Moreover, the entries for the “Ratio IC50” value in the series with HUVEC [2] and in the series on K562 [7] were 83 and 256, respectively. Further, the outcome in the series with HUVEC [12] and in the series on HUVEC [14] was Active. Also, the inhibition at 10 µM in series [13] is > 90%. The inhibition at 1 µM in series [23] was > 90%.
With `COC(=O)[C@]1(C)[C@@H]2CC[C@]3(C)\C(=C(C)/C=C/C=C(C)/C=C/C=O)C(=O)C[C@H]3[C@@]2(C)CC[C@H]1OC(C)=O` [ACETYLJASPIFERAL B METHYL ESTER], the IC50 was 7.8 µM in the series with K562 [1], 16 µM in series [3], 22 µM in series [5] and 0.78 µM with HUVEC [6]. The “Ratio IC50” value in the series with HUVEC [2] stood at 28; in the series with HUVEC [4], 20; in the series on K562 [7], 10.
With `COC(=O)[C@]1(C)[C@@H]2CC[C@]3(C)\C(=C(C)/C=C/C=C(\C)C(/C=C/C(C)(C)O)OC)C(=O)C[C@H]3[C@@]2(C)CC[C@H]1OC(C)=O` (stereo partly specified), the IC50 in the series with K562 [1] is 9.3 µM; in [3], 6.5 µM; in [5], 6 µM; in the series with HUVEC [6] it was 1.1 µM. Further, the “Ratio IC50” value in the series on HUVEC [2] worked out at 6; with HUVEC [4] it was 6; with K562 [7], 9.
For `COC(=O)[C@]1(C)[C@@H]2CC[C@]3(C)C(C(C)CCCC(C)CCCC(C)C)C(=O)C[C@H]3[C@@]2(C)CC[C@H]1OC(C)=O` (stereo partly specified), the concentration for half-maximal inhibition (IC50) with K562 [1] is 53 µM; in series [3], > 100 µM; in series [5] it was 80 µM; with HUVEC [6] it was > 100 µM.
